Measured values reported in ChEMBL document CHEMBL1137476, “Synthesis of the A,B-ring-truncated OSW saponin analogs and their antitumor activities” (Bioorg Med Chem Lett, 2007).

What was measured:
[1] = test system: Jurkat; test: Antitumor activity against Jurkat cells; type: functional, cell-based; conditions: Homo sapiens
[2] = test system: HeLa; test: Antitumor activity against HeLa cells; type: functional, cell-based; conditions: Homo sapiens

SMILES | IC50 [1] | IC50 [2]
COc1ccc(C(=O)O[C@H]2[C@H](O[C@H]3[C@H](OC(C)=O)[C@@H](O[C@H]4C[C@H]5[C@@H]6CC=C7C[C@@H](O)CC[C@]7(C)[C@H]6CC[C@]5(C)[C@@]4(O)[C@H](C)C(=O)OCC(C)C)OC[C@H]3O)OC[C@@H](O)[C@@H]2O)cc1 | 0.0013 µM | 240 nM
COc1ccc(C(=O)O[C@H]2[C@H](O[C@H]3[C@H](OC(C)=O)[C@@H](O[C@H]4C[C@H]5C[C@@H](O)CC[C@]5(C)[C@@]4(O)[C@H](C)C(=O)OCC(C)C)OC[C@H]3O)OC[C@@H](O)[C@@H]2O)cc1 | 14.5 µM | 2600 nM
COc1ccc(C(=O)O[C@H]2[C@H](O[C@H]3[C@H](OC(C)=O)[C@@H](O[C@H]4C[C@H]5C[C@@H](O)CC[C@]5(C)[C@@]4(O)[C@@H](C)C(=O)OCC(C)C)OC[C@H]3O)OC[C@@H](O)[C@@H]2O)cc1 | 21.1 µM | 800 nM
COc1ccc(C(=O)O[C@H]2[C@H](O[C@H]3[C@H](OC(C)=O)[C@@H](O[C@H]4C[C@H]5CCCC[C@]5(C)[C@@]4(O)[C@H](C)C(=O)OCC(C)C)OC[C@H]3O)OC[C@@H](O)[C@@H]2O)cc1 | 8.9 µM | 14900 nM
